Experimental data taken from publication PMC3328449, “Inhibition of Diacylglycerol–Sensitive TRPC Channels by Synthetic and Natural Steroids” (PLoS ONE, 2012).

Biological target: T1, mTRPC4ß (Mus musculus, UniProt Q9QUQ5)
T1 construct: expressed in transfected cells
T1 sequence (Q9QUQ5 1-890 isoform Q9QUQ5-2): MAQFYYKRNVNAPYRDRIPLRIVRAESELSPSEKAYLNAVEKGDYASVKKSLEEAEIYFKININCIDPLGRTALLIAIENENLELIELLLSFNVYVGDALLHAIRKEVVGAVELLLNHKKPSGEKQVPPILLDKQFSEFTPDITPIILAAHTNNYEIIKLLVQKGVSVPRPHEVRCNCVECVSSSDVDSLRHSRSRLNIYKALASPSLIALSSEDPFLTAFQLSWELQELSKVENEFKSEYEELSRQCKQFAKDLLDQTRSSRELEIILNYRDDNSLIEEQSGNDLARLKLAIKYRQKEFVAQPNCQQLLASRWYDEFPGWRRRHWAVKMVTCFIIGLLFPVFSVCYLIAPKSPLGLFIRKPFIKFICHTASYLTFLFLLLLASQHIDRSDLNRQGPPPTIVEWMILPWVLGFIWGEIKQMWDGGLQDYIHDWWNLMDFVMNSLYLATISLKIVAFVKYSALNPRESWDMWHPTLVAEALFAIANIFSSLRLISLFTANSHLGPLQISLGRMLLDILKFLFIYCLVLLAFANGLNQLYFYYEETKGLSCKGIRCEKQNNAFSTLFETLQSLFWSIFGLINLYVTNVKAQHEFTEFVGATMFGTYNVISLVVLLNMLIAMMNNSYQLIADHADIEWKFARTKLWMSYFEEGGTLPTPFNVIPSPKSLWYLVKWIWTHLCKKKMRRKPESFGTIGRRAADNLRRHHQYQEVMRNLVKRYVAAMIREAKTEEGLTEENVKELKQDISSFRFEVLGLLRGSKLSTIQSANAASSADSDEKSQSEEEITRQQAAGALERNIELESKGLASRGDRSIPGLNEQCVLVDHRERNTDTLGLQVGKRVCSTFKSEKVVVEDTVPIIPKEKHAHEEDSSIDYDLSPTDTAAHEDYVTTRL
Assay: Trypsin-induced Ca2+ entry, fluo-4 fluorometric imaging plate reader, TRPC4 HEK-FITR cells
Format: cell-based
Experimental: Cells were grown at 37°C in a humidified atmosphere (5% or 7% CO2) under standard cell culture conditions. Stable human embryonic kidney (HEK) cell lines expressing recombinant mTRPC4ß (GenBank accession number AAC05178); mTRPC5 (GenBank accession number NM_009428) or hTRPC6 (GenBank accession number AF080394) under the control of a tetracycline-inducible promoter were generated using the Flp-In T-Rex (FITR) system (Invitrogen, Karlsruhe, Germany). […]
Cells grown to an almost confluent monolayer on black poly-D-lysine coated 96-well plates (Greiner, Frickenhausen, Germany) were washed with standard extracellular solution (140 mM NaCl, 1 mM MgCl2, 5.4 mM KCl, 2 mM CaCl2, 10 mM HEPES, 10 mM glucose, pH 7.35) and stained (30 min, room temperature) with dye solution (2 µM fluo-4 AM, 0.02% pluronic F127, 0.1% bovine serum albumin in standard extracellular solution). […] Fluo-4 fluorescence was excited at 488 nm with an argon laser and measured using a fluorometric imaging plate reader (Molecular Devices, Sunnyvale, USA). […]
TRPC4- and TRPC5-mediated Ca^2+ influx was stimulated by application of trypsin that activates endogenous Gq-coupled protease activated receptors in HEK cells. […] Compound effects were then calculated from the area under the curve and normalized to the Ca^2+ influx into trypsin-stimulated, non-compound-treated cells. […]

IC50 (TRPC4 HEK-FITR cells, fluo-4, 200 nM trypsin, read-out: IC50, inhibition of trypsin-induced Ca2+ entry via TRPC4): 6.2 µM
Hill slope n, inhibition of TRPC4-mediated Ca2+ entry (fit to Hill model): 1.15
SMILES: CC(=O)[C@H]1CC[C@H]2[C@@H]3CCC4=CC(=O)CC[C@]4(C)[C@H]3CC[C@]12C [progesterone]
